From PubChem BioAssay AID2060619 (Molecular Pharmacology Branch, DTP, NCI, 2025)

System: 323965-272-R-J2-PDC complex spheroid viability
Assay: Anticancer human tumor 323965-272-R-J2-PDC patient-derived pancreatic carcinoma cell line growth inhibition [CLK]
Settings: for IC50: curve of first compound; for viability, T/C: stronger effect = lower value
How it was run: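 Multi-cell-type spheroids combined patient-derived tumor cells with HUVEC endothelial cells and human mesenchymal stem cells. Paired agents were dosed in half-log steps down from about clinical Cmax, or from 10 microM where Cmax was unknown.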
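Note: spheroids exposed to agents for seven days before readout.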
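Throughout, for viability, T/C: percent of DMSO vehicle control wells so 100% = untreated growth.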

**Q.** What does the source list for NC(=O)C(=Cn1cnc(-c2cc(C(F)(F)F)cc(C(F)(F)F)c2)n1)c1cncnc1 + CNC(=O)c1ccc(Nc2nc(OC3CCCC3)c3c(-c4ccc5nc(C)oc5c4)c[nH]c3n2)c(OC)c1?
**A.** IC50 (second compound 0.0316 µM): 1070 nM; IC50 (second compound 0.1 µM): 1270 nM; IC50 (second compound 0.316 µM): 655 nM; IC50 (second compound 1 µM): 53.9 nM; IC50 (second compound 3.16 µM): < 9.49 nM; IC50 (second compound 10 µM): < 9.49 nM; viability, T/C (second compound 0.0316 µM, first compound 0.00949 µM): 112%; viability, T/C (second compound 0.0316 µM, first compound 0.03 µM): 88.8%; viability, T/C (second compound 0.0316 µM, first compound 0.0949 µM): 75.1%; viability, T/C (second compound 0.0316 µM, first compound 0.3 µM): 66.7%; viability, T/C (second compound 0.0316 µM, first compound 0.949 µM): 62.1%; viability, T/C (second compound 0.0316 µM, first compound 3 µM): 30.9%; viability, T/C (second compound 0.1 µM, first compound 0.00949 µM): 86.6%; viability, T/C (second compound 0.1 µM, first compound 0.03 µM): 89%; viability, T/C (second compound 0.1 µM, first compound 0.0949 µM): 70.9%; viability, T/C (second compound 0.1 µM, first compound 0.3 µM): 68.6%; viability, T/C (second compound 0.1 µM, first compound 0.949 µM): 59.6%; viability, T/C (second compound 0.1 µM, first compound 3 µM): 32.5%; viability, T/C (second compound 0.316 µM, first compound 0.00949 µM): 65.8%; viability, T/C (second compound 0.316 µM, first compound 0.03 µM): 67.9%; viability, T/C (second compound 0.316 µM, first compound 0.0949 µM): 64.7%; viability, T/C (second compound 0.316 µM, first compound 0.3 µM): 59.9%; viability, T/C (second compound 0.316 µM, first compound 0.949 µM): 45.3%; viability, T/C (second compound 0.316 µM, first compound 3 µM): 25.5%; viability, T/C (second compound 1 µM, first compound 0.00949 µM): 50.9%; viability, T/C (second compound 1 µM, first compound 0.03 µM): 56.4%; viability, T/C (second compound 1 µM, first compound 0.0949 µM): 45.1%; viability, T/C (second compound 1 µM, first compound 0.3 µM): 42.8%; viability, T/C (second compound 1 µM, first compound 0.949 µM): 30.6%; viability, T/C (second compound 1 µM, first compound 3 µM): 13.1%; viability, T/C (second compound 3.16 µM, first compound 0.00949 µM): 46%; viability, T/C (second compound 3.16 µM, first compound 0.03 µM): 51.4%; viability, T/C (second compound 3.16 µM, first compound 0.0949 µM): 37.1%; viability, T/C (second compound 3.16 µM, first compound 0.3 µM): 38.9%; viability, T/C (second compound 3.16 µM, first compound 0.949 µM): 33%; viability, T/C (second compound 3.16 µM, first compound 3 µM): 16.6%; viability, T/C (second compound 10 µM, first compound 0.00949 µM): 45.1%; viability, T/C (second compound 10 µM, first compound 0.03 µM): 48.4%; viability, T/C (second compound 10 µM, first compound 0.0949 µM): 47.2%; viability, T/C (second compound 10 µM, first compound 0.3 µM): 39.8%; viability, T/C (second compound 10 µM, first compound 0.949 µM): 24.1%; viability, T/C (second compound 10 µM, first compound 3 µM): 9.32%

**Q.** Which results are given for Nc1ccccc1NC(=O)c1ccc(CNC(=O)OCc2cccnc2)cc1 + CNC(=O)c1ccc(Nc2nc(OC3CCCC3)c3c(-c4ccc5nc(C)oc5c4)c[nH]c3n2)c(OC)c1?
**A.** IC50 (second compound 0.0316 µM): 5450 nM; IC50 (second compound 0.1 µM): 6500 nM; IC50 (second compound 0.316 µM): 2410 nM; IC50 (second compound 1 µM): 1110 nM; IC50 (second compound 3.16 µM): < 31.6 nM; IC50 (second compound 10 µM): < 31.6 nM; viability, T/C (second compound 0.0316 µM, first compound 0.0316 µM): 112%; viability, T/C (second compound 0.0316 µM, first compound 0.1 µM): 113%; viability, T/C (second compound 0.0316 µM, first compound 0.316 µM): 118%; viability, T/C (second compound 0.0316 µM, first compound 1 µM): 93.5%; viability, T/C (second compound 0.0316 µM, first compound 3.16 µM): 58.4%; viability, T/C (second compound 0.0316 µM, first compound 10 µM): 41.4%; viability, T/C (second compound 0.1 µM, first compound 0.0316 µM): 90.3%; viability, T/C (second compound 0.1 µM, first compound 0.1 µM): 89%; viability, T/C (second compound 0.1 µM, first compound 0.316 µM): 98.3%; viability, T/C (second compound 0.1 µM, first compound 1 µM): 92.2%; viability, T/C (second compound 0.1 µM, first compound 3.16 µM): 62.1%; viability, T/C (second compound 0.1 µM, first compound 10 µM): 42.8%; viability, T/C (second compound 0.316 µM, first compound 0.0316 µM): 67.2%; viability, T/C (second compound 0.316 µM, first compound 0.1 µM): 69.2%; viability, T/C (second compound 0.316 µM, first compound 0.316 µM): 72.6%; viability, T/C (second compound 0.316 µM, first compound 1 µM): 75.3%; viability, T/C (second compound 0.316 µM, first compound 3.16 µM): 43.4%; viability, T/C (second compound 0.316 µM, first compound 10 µM): 28.8%; viability, T/C (second compound 1 µM, first compound 0.0316 µM): 62.4%; viability, T/C (second compound 1 µM, first compound 0.1 µM): 57.5%; viability, T/C (second compound 1 µM, first compound 0.316 µM): 58.7%; viability, T/C (second compound 1 µM, first compound 1 µM): 51.7%; viability, T/C (second compound 1 µM, first compound 3.16 µM): 35.3%; viability, T/C (second compound 1 µM, first compound 10 µM): 26.2%; viability, T/C (second compound 3.16 µM, first compound 0.0316 µM): 50.7%; viability, T/C (second compound 3.16 µM, first compound 0.1 µM): 47.7%; viability, T/C (second compound 3.16 µM, first compound 0.316 µM): 49.8%; viability, T/C (second compound 3.16 µM, first compound 1 µM): 44%; viability, T/C (second compound 3.16 µM, first compound 3.16 µM): 32.2%; viability, T/C (second compound 3.16 µM, first compound 10 µM): 25.5%; viability, T/C (second compound 10 µM, first compound 0.0316 µM): 41%; viability, T/C (second compound 10 µM, first compound 0.1 µM): 47.3%; viability, T/C (second compound 10 µM, first compound 0.316 µM): 47.1%; viability, T/C (second compound 10 µM, first compound 1 µM): 37.5%; viability, T/C (second compound 10 µM, first compound 3.16 µM): 31.2%; viability, T/C (second compound 10 µM, first compound 10 µM): 25.7%
